Values after ≈ are worked out from the molar mass of the structure shown. One block for each molecule: values may come before it.
Key:
CD86 = assay: h-CLAT assay, CD86 expression by flow cytometry; assay type: cell-based, human; conditions: for EC150 for CD86 (lowest concentration inducing % RFI of 150): THP-1 cells, 24 h; for RFI for CD86: at CV75, 24 h
Description: (§1) The assay was conducted as per the literature (Toxicol In Vitro, 2006, 20, 767-73). THP-1 cells were cultured in 24-well plates (1×10^6 cells/1 mL/well) with various concentrations of each chemical (N1-N13), +ve control (DNCB), −ve control for 24 h.
(§2) THP-1 cells were cultured in 24-well plates (1×10^6 cells/mL/well) and treated with recommended concentrations of each chemical (N1-N13), positive control (DNCB) or negative control (SLS) for 24 h. THP-1 cells were cultured and treated with 8 doses of N1-N13 based on the CV75 namely, 1.2×CV75, 1×CV75, 1/1.2×CV75, 1/1.2^2×CV75, 1/1.23×CV75, 1/1.24×CV75, 1/1.2^5×CV75 and 1/1.2^6×CV75. After 24 h, cells were transferred to 1.5 mL of microtubes and centrifuged at 450 g, 5 min, 4° C. Supernatant was discarded and cells were washed with 1 mL of FACS buffer (PBS+FBS+HEPES). The cells were centrifuged at 450 g, 5 min, 4° C. 50 μL of Fc block (0.01% of Globlins Cohn fraction II, III) was added and incubated for 10 min at 4° C. The cells were stained with 20 μL APC CD54 (Mouse IgG1, K, BD Biosciences, San Diego, CA, USA), 20 μL FITC CD86 (Mouse IgG1, K, BD Biosciences, San Diego, CA, USA) or their respective isotype controls and incubated for 15 min at room temperature in dark. After incubation, the antibodies were diluted with 200 μl FACS buffer. The cells were washed with 1 mL FACS buffer twice. Further, 200 μL Propidium iodide (PI, 0.625 μg/mL) prepared in FACS buffer was added before the flow cytometry analysis. Flow cytometric analysis was performed with BD LSR Fortessa™ (Becton Dickinson, San Jose, CA, USA) In total, 10,000 living cells were analysed, and data were processed using Flowjo software (v10.6, Ashland, OR, USA). The test concentration providing a cell viability of 75% (CV75) was derived from the dose response curve and was calculated by log-linear interpolation.
(§3) Geometric mean fluorescence intensity (MFI) was measured for CD54^+ and CD86^+ cells separately and percentage relative fluorescence intensity (% RFI), reflective of CD86 and CD54 relative expression was calculated as described below. RFI was not calculated if cell viability fell below 50%.
(§4) All chemicals were tested in three independent experiments. If in two of three independent experiments at any dose exceeded 150% RFI for CD86, or 200% RFI for CD54, the chemicals could be identified as a sensitizer. Otherwise it is identified as a non-sensitizer.

CD54 = assay: h-CLAT assay, CD54 expression by flow cytometry; assay type: cell-based, human; conditions: for EC200 for CD54 (lowest concentration inducing % RFI of 200): THP-1 cells, 24 h; for RFI for CD54: at CV75, 24 h
Description: as §1, §2, §3, §4

THP-1 cells [1] = assay: MTT assay on THP-1 cells (CV75); assay type: cell-based, human
Description: THP-1 (human acute monocytic leukaemia cell line) cell suspension was adjusted to 1×10^5 cells per well and seeded in 96-well plates. The plate was incubated at 37° C. with 5% CO2. After 24 h, 10 mM stock solutions of N1-N13 were prepared in autoclaved milli-Q water. A series of concentrations diluted in media was prepared and added to the wells. Each concentration was performed in 6-replicates, and seeded wells with only media and no compound were used as controls while wells with only media were used as blanks. The plate was incubated for 24 h, after which 100 μL of MTT reagent was added and the plate was further incubated for 3 h before adding 100 μL of DMSO. Subsequently, the plate was shaken for 20 min, and then absorbance at 570 nm was determined using a Bio-Tek plate reader. Percentage cell viability was calculated and CV75 values were determined.

[2] = Thermodynamic solubility assay (modified shake flask, LC-MS/MS); conditions: for solubility at 24 h: 25 °C, pH 7, water, thermodynamic from solid
Description: The aqueous solubilities (pH=7) of these compounds were measured using the modified shake flask method and LC-MS/MS. Each hair dye was added into a 2 mL glass vial containing Milli-Q water (1 mL) to form the precipitates at 25° C. Then the mixture was subjected to a solubility-equilibrium stage. The vials were shaken at 300 rpm at 25° C. for 24 h. The precipitate was separated by centrifugation at 23,000 g for 20 min. Subsequently, 0.5 mL of supernatant was transferred into a 1 mL Eppendorf tube, and it was centrifuged again as mentioned above. The supernatant was then used for LC-MS/MS analysis.
The mass spectrometric analysis was performed by use of a AB SCIEX QTRAP 5500 tandem mass spectrometry (MS/MS) system (AB SCIEX, Framingham, MA, USA) operating in triple quadrupole positive mode (ESI+) equipped with an AB Sciex Turbo Ion Spray interface. Acquisition and analysis of data were performed with Analyst software ver. 1.4.2 (Applied Biosystems) which performed all chromatographic peak integration. For each hair dye, a standard curve consisting of four concentrations was established.
Solvent A was composed of 0.1% [v/v] formic acid in Milli-Q water while solvent B was composed of 0.1% [v/v] formic acid in acetonitrile. A mobile phase gradient pumped at 0.6 mL/min was used to elute the hair dyes from the column. The column was equilibrated for 1 min resulting in a total run time of 5 min. The injection volume was 5.0 μL for all derivatives. To prevent compound accumulation on the needle, 50% methanol in ACN was used as needle wash for 30 s per sample.

[3] = data from J Hazard Mat., 2021, 402, 123712, cited from earlier work
THP-1 cells [4] = assay: h-CLAT assay on THP-1 cells: markers against OECD cut-off, prediction, cell viability; assay type: cell-based, human; conditions: for CD54 and CD86 marker expression against OECD cut-off: 8 doses based on CV75, 24 h
Description: as §1, §2, §3, §4

IL-1α = conditions: data from J Hazard Mat., 2021, 402, 123712 (FIG. 6); cited from earlier work
IL-8 = conditions: data from J Hazard Mat., 2021, 402, 123712 (FIG. 6); cited from earlier work
HaCaT cells = conditions: data from J Hazard Mat., 2021, 402, 123712; cited from earlier work
[5] = in vivo; cited from earlier work
[6] = Milli-Q water, Water Solubility, library of old series (Table 4)
[7] = library of old series (Table 4)

SMILES: O=[N+]([O-])c1ccc(Cl)c([N+](=O)[O-])c1 [DNCB]
EC150 for CD86 (lowest concentration inducing % RFI of 150) (CD86): 1.4 µg/mL | RFI for CD86 (CD86): 326% | EC200 for CD54 (lowest concentration inducing % RFI of 200) (CD54): 1.5 µg/mL | RFI for CD54 (CD54): 450% | CV75 (concentration affording 75% cell viability), 1 × CV75 (THP-1 cells [1]; THP-1 cells, 24 h): 3.0 µg/mL

SMILES: Nc1ccc(Nc2ccc(Nc3ccc(Nc4ccc(N)cc4)cc3)cc2)cc1 [PPD8, reference compound]
Water Solubility [2, 7]: Insoluble

SMILES: Cc1cc(N)ccc1N [PTD, 2-methylbenzene-1,4-diamine]
EC150 for CD86 (lowest concentration inducing % RFI of 150) (CD86): 34.3 µg/mL | Recovered in donor compartment [3]: 95 % of applied compound dose | Recovered in skin [3]: 2.1 % of applied compound dose | Recovered in skin outside diffusion area [3]: 0.0077 % of applied compound dose | Recovered in skin swabs [3]: 0.48 % of applied compound dose | Recovered on parafilm and in washes [3]: 0.68 % of applied compound dose | Total recovery (mean percentage parent compound recovery) [3]: 99 ± 0.33% | CD54 and CD86 marker expression against OECD cut-off (THP-1 cells [4]): above the recommended threshold | release of IL-1α (IL-1α): higher concentrations | release of IL-8 (IL-8): higher concentrations | EC200 for CD54 (lowest concentration inducing % RFI of 200) (CD54): 35.35 µg/mL | CV75 (concentration affording 75% cell viability), 1 × CV75 (THP-1 cells [1]; human): 43.4 µg/mL | IC50 (HaCaT cells): 73.1 µM | solubility at 24 h [2]: 2500 µg/mL (≈ 20500 µM)

SMILES: COCc1cc(N)ccc1N [ME-PPD, 2-(methoxymethyl)benzene-1,4-diamine]
EC150 for CD86 (lowest concentration inducing % RFI of 150) (CD86): 117.9 µg/mL | Cumulative amount at 8th hour ([3]; 8 h): 0.519 μg/cm^2 | Cumulative amount comparison of PPD vs derivatives ([3]; 8 h): 10.4 | Permeated through skin into receptor [3]: 0.0044 % of applied compound dose | Recovered in donor compartment [3]: 89 % of applied compound dose | Recovered in skin [3]: 3.6 % of applied compound dose | Recovered in skin outside diffusion area [3]: 0.0042 % of applied compound dose | Recovered in skin swabs [3]: 0.69 % of applied compound dose | Recovered on parafilm and in washes [3]: 1.84 % of applied compound dose | Total recovery (mean percentage parent compound recovery) [3]: 95 ± 0.79% | CD54 and CD86 marker expression against OECD cut-off (THP-1 cells [4]): above the recommended threshold | release of IL-1α (IL-1α): higher concentrations | PPD-allergic individuals who develop an allergic reaction [5]: approximately 30% | release of IL-8 (IL-8): higher concentrations | EC200 for CD54 (lowest concentration inducing % RFI of 200) (CD54): 120.5 µg/mL | CV75 (concentration affording 75% cell viability), 1 × CV75 (THP-1 cells [1]; THP-1 cells, 24 h): 144.6 µg/mL | IC50 (HaCaT cells): 334 µM | solubility at 24 h [2, 6]: 78000 µg/mL (≈ 512000 µM)

SMILES: CCCCCCCCCCCCOS(=O)(=O)[O-].[Na+] [SLS, reference compound]
CD54 and CD86 marker expression against OECD cut-off (THP-1 cells [4]): did not express markers | CV75 (concentration affording 75% cell viability), 1 × CV75 (THP-1 cells [1]; THP-1 cells, 24 h): 56.0 µg/mL

SMILES: Nc1ccc(N)cc1 [PPD, para-phenylenediamine]
EC150 for CD86 (lowest concentration inducing % RFI of 150) (CD86): 39.4 µg/mL | RFI for CD86 (CD86): 210% | Cumulative amount at 8th hour ([3]; 8 h): 5.4 μg/cm^2 | Permeated through skin into receptor [3]: 0.038 % of applied compound dose | Recovered in donor compartment [3]: 83 % of applied compound dose | Recovered in skin [3]: 4.3 % of applied compound dose | Recovered in skin outside diffusion area [3]: 0.0050 % of applied compound dose | Recovered in skin swabs [3]: 0.82 % of applied compound dose | Recovered on parafilm and in washes [3]: 2.19 % of applied compound dose | Total recovery (mean percentage parent compound recovery) [3]: 93 ± 0.52% | CD54 and CD86 marker expression against OECD cut-off (THP-1 cells [4]): above the recommended threshold | marker induction, times lower than DNCB (THP-1 cells [4]; human, 24 h): 1.6 | release of IL-1α (IL-1α): higher concentrations | release of IL-8 (IL-8): higher concentrations | EC200 for CD54 (lowest concentration inducing % RFI of 200) (CD54): 35.0 µg/mL | RFI for CD54 (CD54): 270% | CV75 (concentration affording 75% cell viability), 1 × CV75 (THP-1 cells [1]; THP-1 cells, 24 h): 65.4 µg/mL | IC50 (HaCaT cells): 23.4 µM | solubility at 24 h [2]: 40000 µg/mL (≈ 370000 µM) | solubility in per cent ([2]; water): 4%

SMILES: Cc1ccc(CNc2ccc(Nc3ccc(Nc4ccc(N)cc4)cc3)cc2)cc1 [PPD10, reference compound]
Water Solubility [2, 7]: Insoluble

SMILES: CCCCCCNc1ccc(Nc2ccc(N)cc2)cc1OCCCCCC [PPD7, reference compound]
solubility at 24 h [2, 6]: 5 µg/mL (≈ 13 µM)

SMILES: Cc1ccc(CNc2ccc(Nc3ccc(N)cc3)cc2)cc1 [PPD9, reference compound]
Water Solubility [2, 7]: Insoluble

More lines, now with the values ahead:

solubility at 24 h [2, 6]: 500 µg/mL (≈ 2510 µM)
SMILES: Nc1ccc(Nc2ccc(N)cc2)cc1 [PPD 1, reference compound]

solubility at 24 h [2, 6]: 1 µg/mL (≈ 3.05 µM)
SMILES: CCCCCCOC(=O)c1cc(Nc2ccc(N)cc2)ccc1N [PPD 6, reference compound]

Water Solubility [2, 7]: Insoluble
SMILES: COc1ccc(CNc2ccc(Nc3ccc(NCc4ccc(O)cc4)cc3)cc2)cc1 [PPD12, reference compound]

solubility at 24 h [2, 6]: 80 µg/mL (≈ 338 µM)
SMILES: CCCCC(CC)COc1cc(N)ccc1N (stereo not drawn) [PPD 3, reference compound]

Water Solubility [2, 7]: Insoluble
SMILES: Oc1ccc(CNc2ccc(Nc3ccc(NCc4ccc(O)cc4)cc3)cc2)cc1 [PPD14, reference compound]

solubility at 24 h [2, 6]: 80 µg/mL (≈ 384 µM)
SMILES: CCCCCCOc1cc(N)ccc1N [PPD 4, reference compound]

solubility at 24 h [2, 6]: 10 µg/mL (≈ 42.3 µM)
SMILES: CCCCCCOC(=O)c1cc(N)ccc1N [PPD15, reference compound]

Water Solubility [2, 7]: Insoluble
SMILES: Nc1ccc(CNc2ccc(Nc3ccc(NCc4ccc([N+](=O)[O-])cc4)cc3)cc2)cc1 [PPD11, reference compound]

Water Solubility [2, 7]: Insoluble
SMILES: CCCCCCNc1ccc(N)cc1OCCCCCC [PPD16, reference compound]

Water Solubility [2, 7]: Insoluble
SMILES: CCCCCCOc1cc(Nc2ccc(N)cc2)ccc1N [PPD 5, reference compound]

Water Solubility [2, 7]: Insoluble
SMILES: Cc1ccc(CNc2ccc(Nc3ccc(NCc4ccc(C)cc4)cc3)cc2)cc1 [PPD13, reference compound]

solubility at 24 h [2, 6]: 100 µg/mL (≈ 344 µM)
SMILES: Nc1ccc(Nc2ccc(Nc3ccc(N)cc3)cc2)cc1 [PPD 2, reference compound]

Source: US20240197596A1, “COMPOUNDS USEFUL AS HAIR DYES” (National University of Singapore, priority 2021, published 2024)
